Experimental data as given in patent US10858398B2, “Lytic peptide biosensor and methods of making and using the same” (Deetex, LLC, priority 2018, dated 2020).

Experiments:
Assay type in all cases: cell-based
[1] = tested on: E. coli bacterial cells induced to produce β-galactosidase; assay: β-galactosidase release colour change assay (X-gal), induced bacteria in welled plate; settings: then X-gal 15 minutes at 37° C.
Procedure: (§1) Non-induced E. coli cells were deposited in wells F1-F3 (control). The cells were treated as follows: Group 1, 10% SDS was added to wells A1-A3, B1-B3, and C1-C3; Group 2, 100 μM LL-37 was added to D1-D3; Group 3, untreated induced bacterial cells in wells E1-E3 (control); Group 4, 100 μM LL-37 added to wells F1-F3. Samples were incubated for 15 minutes post-treatment, and 20 μL of 20 mg/mL X-gal substrate was added to each well and allowed to incubate for 15 minutes at 37° C.
A plate was designed as set forth in FIG. 6a: Group 5, induced bacterial cells treated with 100 uM LL-37 (wells A1-A3, B1-B3, C1-C3); Group 6, induced bacterial cells treated with 10% PBS (wells D1-D3), Group 7, non-induced bacteria treated with a lytic agent (wells E1-E3); Group 8, non-induced bacteria untreated (wells F1-F3); Group 9, induced bacteria treated with a lytic agent (wells G1-G3); and Group 10, untreated induced bacteria.
Samples were incubated for 15 minutes post-treatment, and 20 uL of 20 mg/mL X-gal substrate was added to each well and allowed to incubate for 15 minutes at 37° C.
A plate was designed as set forth in FIG. 7a: Group 11, induced bacteria were treated with 100 uM LL-37 (wells A1-A3, B1-B3, and C1-C3); Group 12, induced bacteria that were untreated (wells D1-D3). […]

[2] = tested on: lacZ transfected E. coli; assay: Bacterial Assay: 1:2 dilution series of LL-37 on IPTG-induced lacZ transfected E. coli, X-gal colour change; settings: 15 minutes room temperature, X-gal 15 minutes 37° C.
Procedure: E. coli cells transfected with the lacZ gene that encodes the protein β-galactosidase were obtained. The cells were plated to produce isolate colonies that were then selected.
An isolate colony of lacZ transfected E. coli from the plate of Example 2 was looped and inoculated into 10 mL of RPMI 1640 medium+glucose (available from ThermoFisher Scientific, Waltham, Mass.) and incubated at 37° C. for 24 hours.
The liquid bacterial culture from Example 3 was removed from incubation and centrifuged at 1200 RPM for 7 minutes. The supernatant was removed, and the bacterial pellet was resuspended in 1 mL of RPMI 1640 (−glucose) liquid tissue culture medium as Sample A. A 15 mL centrifuge tube was filled with induction media (8.9 mL RPMI 1640 (−glucose), 100 μL induced IPTG. 1 mL of the resuspended bacterial culture from Sample A was added to the new tube as Sample B, for a final volume of 10 mL. Sample B was incubated at 37° C. for 60 minutes.
After incubation, 100 μL of Sample B was transferred to each of wells A1-A12 and B1-B12. 10 μL of a 2000 μM LL-37 stock solution was then added to well A1, and a 1:2 dilution was conducted across wells A2-A11. The dilution was repeated for wells B1-B11. No LL-37 solution was added to wells A12 and B12 (controls). The plate was incubated for 15 minutes at room temperature. […]

[3] = tested on: Non-induced E. coli cells; assay: β-galactosidase release colour change assay (X-gal), non-induced control cells; settings: 100 μM LL-37; non-induced cells (Group 4); 15 minutes, then X-gal 15 minutes at 37° C.
Procedure: as §1

[4] = tested on: induced bacteria, lyophilized; assay: Bacterial Assay IV: lyophilized and rehydrated induced bacteria, X-gal colour change in tubes; settings: 100 uM LL-37, rehydrated after 72 hours, X-gal 15 minutes at 37° C.
Procedure: Aliquots of induced bacteria were prepared with 1 mL of the sample dispensed into three Eppendorf tubes. Samples were then lyophilized. After 72 hours to ensure stability, tubes were rehydrated with 1 mL of RPMI 1640 (+) Glucose culture medium and treated. 50 uL of 20 mg/mL X-gal substrate was added to each tube and allowed to incubate for 15 minutes at 37° C.

Row | Molecule | colorimetric result (color change pink to blue, release of β-galactosidase) ([1]; 10% SDS, 15 minutes post-treatment) | visual color change, higher concentrations of dilution series ([2]; wells A1-A5 and B1-B5, 10 μL of 2000 μM stock in well 1, then 1:2 dilution) | visual color change, lower concentrations of dilution series ([2]; wells A6-A11 and B6-B11 of the 1:2 dilution series) | colorimetric result (color change pink to blue, release of β-galactosidase) ([1]; 100 μM LL-37, 15 minutes post-treatment) | colorimetric result (color change pink to blue) [3] | tube color change pink to blue (release of β-galactosidase) [4]
1 | CCCCCCCCCCCCOS(=O)(=O)[O-].[Na+] [SDS] | mild color change |  |  |  |  | 
2 | LL-37: anti-microbial alpha-helical 37 amino acid peptide released from human cathelicidin; membrane lytic peptide, human or synthetic |  | appeared blue | remained pink | completely converted the well color from pink to blue | remained pink | converted the tube color from pink to blue
